Several values for one entry are separate records, joined by “and”; a condition that tells them apart may be missing. Equal entries are not always repeated.
What was measured:
[1] = test system: tomato spotted wilt virus (TSWV); experiment: Tobacco drench / broadcast spray trial (Example 8); type: in vivo, tobacco (Nicotiana tabacum); details: prothioconazole 0.0084 g ai/plant, imidacloprid 0.01 g/plant (drench), acibenzolar-S-methyl 2.47 g ai/Ha broadcast spray
Source text: Cultivation—A trial on tobacco (Nicotiana tabacum) was initiated in Molino, Fla., to see if drenches of prothioconazole alone and in combination with the insecticide imidacloprid could control TSWV in tobacco. Plants of cultivar C-371 Gold were transplanted on April 28 into 9.1 meter plots with three replications. All eight treatments were applied after transplanting on May 1. Foliar treatments were applied as a broadcast spray, while drenches were applied as in Example 6. Acibenzolar-S-methyl is a plant defense activator used to control TSWV in tobacco.
Treatments— • Untreated • Imidacloprid@0.01 g imidacloprid/plant • Imidacloprid@0.015 g Imidacloprid/plant • Prothioconazole@0.0084 g active ingredient/plant • Prothioconazole@0.0084 g active ingredient/plant+Imidacloprid@0.01 g imidacloprid/plant • Prothioconazole@0.0084 g active ingredient/plant+Imidacloprid@0.015 g […] label. • Acibenzolar-S-methyl@2.47 g active ingredient/Ha as a broadcast spray as per label.
TSWV rating—For TSWV incidence determination the percentage of plants with TSWV symptoms (chlorosis and stunting) was determined for the eight treatments as in Example 6.

[2] = test system: tomato spotted wilt virus (TSWV); experiment: Replicated peanut field trials, in-furrow treatment at planting (Examples 1-3); type: in vivo, peanut (Arachis hypogaea L.); details: for TSWV Incidence (number of symptomatic feet of row per 60 foot plot): 8 replicate plots
Protocol: Cultivation—Three replicated field trials were conducted at the Bayer CropScience research farm in Tifton, Ga., using standard commercial peanut practices. Prior to planting, fields were flag staked to establish 8 replications per treatment per trial of two rows by 30 ft long (6 ft by 30 ft, 60 row feet total) each. On May 19, two cultivars of peanut (Arachis hypogaea L.), Georgia Green (two fields, Examples 1 and 2) and Carver (one field, Example 3) were planted using a two-row Monosem air planter. During the planting passes a tractor mounted compressed air system was used to spray the in-furrow treatment into the furrow before row closure. All other plots were not treated at planting. Single field passes were used to plant entire fields to ensure a uniform planting depth. Treatments— • Treated—Plots received an in-furrow application of prothioconazole at planting at a rate of 200 g prothioconazole/Ha. Through the season these plots received foliar fungicide maintenance using standard commercial fungicides including chlorothalonil and tebuconazole. • Untreated—Due to standard practices in peanut pesticide testing, each treated plot always included untreated peanut plots adjacent to the treated plots that serve as spacer rows. […] Untreated plots in Examples 1 and 3 received foliar maintenance applications to control foliar diseases. […] TSWV rating—Plots were examined periodically following emergence for differences in appearance. In certain instances, (August 19 data for example), TSWV incidence is determined as the number of row feet with TSWV symptoms (chlorosis and stunting) which was determined for the two treatments.

[3] = test system: tomato spotted wilt virus (TSWV); experiment: Non-replicated GLP peanut residue trial, Molino, Fla. (Example 5); type: in vivo; details: for Percent row feet infected with TSWV: Georgia Green, rated August 23, 160 row ft plot
Protocol: Cultivation—A non-replicated GLP peanut residue trial was conducted in Molino, Fla., using similar methods as in Examples 3 and 4. The cultivar used was Georgia Green. Prothioconazole treated seed were prepared on May 12. Plots were 160 row ft. in length. Treatments— • Untreated—no in-furrow treatment, chlorothalonil maintenance only for foliar diseases. • Seed treatment, in-furrow, and foliar—prothioconazole seed treatment@10 g active ingredient/100 kg seed plus prothioconazole applied in-furrow@200 g active ingredient/Ha followed by a program of three chlorothalonil applications and four applications of prothioconazole@100 g active ingredient/Ha. • Foliar only—A program of three chlorothalonil applications and four applications of prothioconazole@200 g active ingredient/Ha. TSWV rating—For TSWV incidence determination, on August 23 the number of row feet per plot with TSWV symptoms (chlorosis and stunting) was determined for the three treatments. Statistics cannot be run on single replication trials.

[4] = test system: tomato spotted wilt virus (TSWV); experiment: Bell pepper drench trial (Example 7); type: in vivo, bell pepper (Capsicum annum L.); details: for Percent control of incidence of TSWV in bell peppers: Abbott's formula; for Percent incidence TSWV in bell peppers: drench, prothioconazole 0.0084 g ai/plant, imidacloprid 0.01 g/plant
Protocol: Cultivation—A trial on bell pepper (Capsicum annum L.) was initiated in Molino, Fla. to see if drenches of prothioconazole alone and in combination with the insecticide imidacloprid could control TSWV in pepper. Bell pepper plants were transplanted on April 11 into 9.1 meter plots with three replications as in Example 6. Treatments were applied as a drench in 40 ml water per plant (7 days after transplanting) on April 18 as in Example 6.
Treatments— • Untreated—no in-furrow treatment. • Imidacloprid—imidacloprid@0.01 g imidacloprid/plant. • Prothioconazole—prothioconazole@0.0084 g prothioconazole/plant. • Prothioconazole+Imidacloprid—prothioconazole@0.0084 g active ingredient/plant+imidacloprid@0.01 g imidacloprid/plant.
TSWV rating—For TSWV incidence determination, the percentage of plants with TSWV symptoms (chlorosis and stunting) was determined for the four treatments at 21, 29, 38, and 47 days after treatment as in Example 6.
Synergy formula—The Colby formula for proof of synergy was used in Example 7 as in Example 6.

[5] = test system: tomato spotted wilt virus (TSWV); experiment: Non-replicated GLP peanut residue trial, Tifton, Ga. (Example 4); type: in vivo; details: for Percent row feet infected with TSWV: rated August 22, 525 row ft plot
Protocol: Cultivation—A non-replicated GLP (good laboratory practice) peanut residue trial was in progress at the Tifton, Ga., location using similar cultivation methods as in Examples 1-3. The planting and in-furrow treatment date was May 26. Prothioconazole treated seed were prepared two weeks prior on May 12. Plots were 525 row ft. Treatments— • Untreated—no in-furrow treatment, chlorothalonil maintenance only for foliar diseases. • Seed treatment, in-furrow, and foliar—prothioconazole seed treatment@10 g active ingredient/100 kg seed plus prothioconazole applied in-furrow@200 g active ingredient/Ha followed by prothioconazole@100 g active ingredient/Ha on July 21, August 4, and August 18. • Foliar only—prothioconazole@200 g active ingredient/Ha on July 21, August 4, and August 18. TSWV rating—For TSWV incidence determination, on August 22 the number of row feet per plot with TSWV symptoms (chlorosis and stunting) was determined for the three treatments. Statistics cannot be run on single-replication trials.

OC(Cc1ccccc1Cl)(Cn1nc[nH]c1=S)C1(Cl)CC1 (centres unmarked) [Prothioconazole, prothioconazole]
Percent incidence TSWV in tobacco ([1]; 14 days after treatment): 32.2%
Percent incidence TSWV in tobacco ([1]; 21 days after treatment): 35.0%
Percent incidence TSWV in tobacco ([1]; 38 days after treatment): 56.7%
Reduction of TSWV incidence compared to untreated ([2]; Carver trial (Example 3), in-furrow treatment): not significant
TSWV Incidence (number of symptomatic feet of row per 60 foot plot) ([2]; Example 1, Georgia Green, in-furrow 200 g prothioconazole/Ha at planting with foliar maintenance (chlorothalonil, tebuconazole)): 18 feet of row per 60 foot plot (2×) and 14 feet of row per 60 foot plot and 19 feet of row per 60 foot plot (2×) and 8 feet of row per 60 foot plot and 12 feet of row per 60 foot plot and 20 feet of row per 60 foot plot
TSWV Incidence (number of symptomatic feet of row per 60 foot plot) ([2]; Example 2, Georgia Green, in-furrow 200 g prothioconazole/Ha at planting with foliar maintenance, adjacent untreated had no foliar maintenance): 13 feet of row per 60 foot plot and 25 feet of row per 60 foot plot (2×) and 24 feet of row per 60 foot plot and 17 feet of row per 60 foot plot and 18 feet of row per 60 foot plot and 27 feet of row per 60 foot plot and 20 feet of row per 60 foot plot
TSWV Incidence (number of symptomatic feet of row per 60 foot plot) ([2]; Example 3, Carver, in-furrow 200 g prothioconazole/Ha at planting with foliar maintenance): 17 feet of row per 60 foot plot and 8 feet of row per 60 foot plot and 19 feet of row per 60 foot plot and 26 feet of row per 60 foot plot and 12 feet of row per 60 foot plot and 16 feet of row per 60 foot plot and 7 feet of row per 60 foot plot and 9 feet of row per 60 foot plot
TSWV incidence in percent of row feet with symptoms compared to untreated controls ([2]; Georgia Green (Example 1 and 2), in-furrow treatment): significantly lower
Percent row feet infected with TSWV ([3]; foliar only: three chlorothalonil and four prothioconazole 200 g ai/Ha applications): 16.25%
Percent row feet infected with TSWV ([3]; seed treatment 10 g ai/100 kg seed + in-furrow 200 g ai/Ha + three chlorothalonil and four prothioconazole 100 g ai/Ha applications): 10.6%
Number of row feet infected with TSWV compared with foliar only program or chlorothalonil maintenance only ([3]; seed treatment, in-furrow, and foliar prothioconazole applications (treatment 2)): numerically lower
Percent control of incidence of TSWV in bell peppers ([4]; 21 days after treatment): 24.90%
Percent incidence TSWV in bell peppers ([4]; 21 days after treatment): 18.1%
Percent control of incidence of TSWV in bell peppers ([4]; 29 days after treatment): 32.20%
Percent incidence TSWV in bell peppers ([4]; 29 days after treatment): 31.8%
Percent control of incidence of TSWV in bell peppers ([4]; 38 days after treatment): 12.84%
Percent incidence TSWV in bell peppers ([4]; 38 days after treatment): 44.8%
Percent control of incidence of TSWV in bell peppers ([4]; 47 days after treatment): 6.44%
Percent incidence TSWV in bell peppers ([4]; 47 days after treatment): 49.4%
Increase of TSWV level from 38 DAT to 47 DAT ([4]; bell pepper, untreated increased by 1.4 percent): roughly 4.5%
Percent row feet infected with TSWV ([5]; foliar only 200 g ai/Ha x3): 30.5%
Percent row feet infected with TSWV ([5]; seed treatment 10 g ai/100 kg seed + in-furrow 200 g ai/Ha + foliar 100 g ai/Ha x3): 24.0%
Number of row feet infected with TSWV compared with foliar only program or untreated ([5]; seed treatment, in-furrow, and foliar applications): numerically lower

Reference: patent US20080039431A1, “Method of improving plant growth by reducing viral infections” (priority 2006, published 2008)
